Assay [1] deals with T1, Human HDAC4 (Homo sapiens, UniProt P56524).
T1 construct: amino acids 627-1085 with N-terminal GST tag; GST (N); host or cells: baculovirus expression system
Briefly: HDAC4 biochemical assay, class IIa-specific substrate. The note with it: read-out: HDAC Isoform IC50 (nM) 4. The method in brief:
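Two-step fluorogenic read-out: deacetylated BOC-Lys(trifluoroacetyl)-AMC (50 μM) was digested by developer and measured at Ex/Em 360/460. Deacetylation by 0.004 ng/ul HDAC4 (aa 627-1085, N-terminal GST) ran 30 min at room temperature, pH 8.0 Tris buffer, 1 mg/mL BSA, 1% DMSO.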

Assay [2] has as its target T2, Human HDAC7 (Homo sapiens, UniProt Q8WUI4).
T2 construct: (a.a. 518-end) with N-terminal GST tag; GST (N); host or cells: baculovirus expression system
T2 sequence (Q8WUI4 518-952 limits assumed): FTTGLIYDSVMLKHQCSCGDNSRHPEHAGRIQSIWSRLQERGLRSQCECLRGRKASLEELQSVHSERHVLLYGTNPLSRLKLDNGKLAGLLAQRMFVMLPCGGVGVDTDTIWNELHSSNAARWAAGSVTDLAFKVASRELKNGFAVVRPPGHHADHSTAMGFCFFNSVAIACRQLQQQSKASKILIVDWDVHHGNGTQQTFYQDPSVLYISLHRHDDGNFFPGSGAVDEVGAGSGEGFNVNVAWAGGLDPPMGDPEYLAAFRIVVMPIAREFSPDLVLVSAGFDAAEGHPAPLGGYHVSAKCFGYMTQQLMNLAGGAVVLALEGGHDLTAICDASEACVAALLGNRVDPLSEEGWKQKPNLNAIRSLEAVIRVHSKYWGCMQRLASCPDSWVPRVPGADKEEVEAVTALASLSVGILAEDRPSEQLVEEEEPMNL
Briefly: HDAC7 biochemical assay, class IIa-specific substrate. The note with it: read-out: HDAC Isoform IC50 (nM) 7. The method in brief: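 Two-step fluorogenic readout: class IIa-selective trifluoroacetyl-lysine AMC substrate (50 μM) deacetylated by N-terminal GST-HDAC7 fragment (0.001 ng/ul), then digested by developer, Ex/Em 360/460. Reaction: 30 min, room temperature, Tris-HCl pH 8.0, NaCl/KCl/MgCl2, 1 mg/mL BSA, 1% DMSO.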

Assay [3] deals with T3, Human HDAC5 (Homo sapiens, UniProt Q9UQL6).
T3 construct: full length with C-terminal His tag, MW=51.1 kDa; His (C); host or cells: baculovirus expression system
T3 sequence (Q9UQL6 656-1122 limits assumed): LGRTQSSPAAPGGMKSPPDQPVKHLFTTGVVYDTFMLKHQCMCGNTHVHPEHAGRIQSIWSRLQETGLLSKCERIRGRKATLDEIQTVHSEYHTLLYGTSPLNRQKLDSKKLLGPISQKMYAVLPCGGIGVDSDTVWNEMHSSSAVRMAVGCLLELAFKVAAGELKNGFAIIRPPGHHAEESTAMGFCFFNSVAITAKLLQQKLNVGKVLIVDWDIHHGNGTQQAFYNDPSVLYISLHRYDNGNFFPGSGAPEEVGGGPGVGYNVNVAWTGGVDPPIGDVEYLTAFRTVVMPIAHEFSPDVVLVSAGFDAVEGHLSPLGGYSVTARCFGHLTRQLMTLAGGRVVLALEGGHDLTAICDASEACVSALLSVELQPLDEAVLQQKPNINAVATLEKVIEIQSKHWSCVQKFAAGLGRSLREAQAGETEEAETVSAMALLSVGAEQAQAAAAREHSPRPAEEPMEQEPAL
Briefly: HDAC5 biochemical assay, class IIa-specific substrate. The note with it: read-out: HDAC Isoform IC50 (nM) 5. The method in brief:
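Two-step fluorogenic read-out: deacetylated trifluoroacetyl-lysine AMC substrate (50 μM) digested by developer, measured at Ex/Em 360/460. Deacetylation step: 0.05 ng/ul His-tagged full-length baculoviral enzyme with compound, 30 min, room temperature, pH 8.0 Tris with 1 mg/mL BSA and 1% DMSO.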

In assay [4] the target is T4, Human HDAC1 (Homo sapiens, UniProt Q13547).
T4 construct: full length with C-terminal His-tag and C-terminal FLAG-tag; His (C); FLAG (C); host or cells: baculovirus expression system
T4 sequence (Q13547 whole entry): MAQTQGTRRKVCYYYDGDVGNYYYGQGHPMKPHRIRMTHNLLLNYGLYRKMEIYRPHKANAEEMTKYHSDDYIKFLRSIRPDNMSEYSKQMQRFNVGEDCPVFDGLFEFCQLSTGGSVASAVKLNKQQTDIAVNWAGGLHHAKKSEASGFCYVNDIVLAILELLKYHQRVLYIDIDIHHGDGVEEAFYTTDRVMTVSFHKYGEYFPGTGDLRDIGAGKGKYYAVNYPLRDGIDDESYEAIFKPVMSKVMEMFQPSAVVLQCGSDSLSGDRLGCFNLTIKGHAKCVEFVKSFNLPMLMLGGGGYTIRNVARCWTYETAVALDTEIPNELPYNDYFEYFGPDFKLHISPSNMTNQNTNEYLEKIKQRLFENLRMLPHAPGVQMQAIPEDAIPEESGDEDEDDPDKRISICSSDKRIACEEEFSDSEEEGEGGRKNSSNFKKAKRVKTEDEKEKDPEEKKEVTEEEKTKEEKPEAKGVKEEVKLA
Briefly: HDAC1 biochemical assay, AMC-labeled peptide substrate. Conditions: read-out: HDAC Isoform IC50 (nM) 1. The method in brief:
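Two-step fluorogenic read: HDAC1 deacetylates 50 μM acetyl-lysine AMC peptide RHKK(Ac)AMC for 1 h at 30° C (pH 8.0, 1% DMSO, with compound), then developer digests the product for fluorescence at Ex/Em 360/460. Enzyme is full-length human, His/FLAG-tagged, insect-cell expressed, at 0.3 ng/ul.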

Assay [5] concerns the target T5, Human HDAC10 (Homo sapiens, UniProt Q969S8).
T5 construct: Human HDAC10 (a.a. 1-481); GST (N); His (C); host or cells: baculovirus expression system
T5 sequence (Q969S8 1-481): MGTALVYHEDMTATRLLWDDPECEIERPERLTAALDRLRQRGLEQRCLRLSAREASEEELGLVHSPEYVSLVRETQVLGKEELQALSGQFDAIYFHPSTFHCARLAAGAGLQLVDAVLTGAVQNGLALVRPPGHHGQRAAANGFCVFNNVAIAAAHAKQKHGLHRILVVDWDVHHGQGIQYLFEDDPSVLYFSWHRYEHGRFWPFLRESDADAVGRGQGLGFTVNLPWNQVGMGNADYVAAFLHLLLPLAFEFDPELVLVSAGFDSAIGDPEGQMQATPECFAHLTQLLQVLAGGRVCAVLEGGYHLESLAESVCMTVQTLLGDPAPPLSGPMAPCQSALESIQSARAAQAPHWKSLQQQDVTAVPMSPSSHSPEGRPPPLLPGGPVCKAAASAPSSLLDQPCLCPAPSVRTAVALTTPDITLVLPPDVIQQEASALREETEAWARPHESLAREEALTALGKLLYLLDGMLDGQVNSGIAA
Briefly: HDAC10 biochemical assay, AMC-labeled peptide substrate. Conditions: read-out: HDAC Isoform IC50 (nM) 10. The method in brief:
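Two-step fluorogenic read-out (Ex/Em 360/460) after developer digestion of deacetylated RHKK(Ac)AMC (50 μM). Deacetylation ran 2 h at 30 °C with 12 ng/ul HDAC10 (aa 1-481, GST/His tags, baculovirus) in Tris-HCl pH 8.0, BSA, 1% DMSO.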

Broadly, the IC50 is the concentration that inhibits the measured activity by half.

A value given as a limit tells only on which side of the number the result lay.

T1 sequence (P56524 627-1084 limits assumed): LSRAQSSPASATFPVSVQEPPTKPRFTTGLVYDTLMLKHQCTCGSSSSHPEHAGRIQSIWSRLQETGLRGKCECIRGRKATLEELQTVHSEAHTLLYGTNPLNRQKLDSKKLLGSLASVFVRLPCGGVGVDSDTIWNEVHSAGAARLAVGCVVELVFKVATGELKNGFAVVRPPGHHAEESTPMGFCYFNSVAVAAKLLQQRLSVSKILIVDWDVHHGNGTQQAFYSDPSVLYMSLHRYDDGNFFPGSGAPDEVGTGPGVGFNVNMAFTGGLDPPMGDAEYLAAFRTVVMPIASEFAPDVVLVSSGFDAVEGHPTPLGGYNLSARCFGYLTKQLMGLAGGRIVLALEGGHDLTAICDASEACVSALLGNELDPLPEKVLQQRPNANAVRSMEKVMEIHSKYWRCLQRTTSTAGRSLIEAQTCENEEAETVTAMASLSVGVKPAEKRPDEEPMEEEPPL

With `FC(F)(F)c1ccc(N(Cc2ccc(-c3noc(C(F)(F)F)n3)s2)c2cnccn2)nn1` [Example DH, N-(Pyrazin-2-yl)-6-(trifluoromethyl)-N-({5-[5-(trifluoromethyl)-1,2,4-oxadiazol-3-yl]thiophen-2-yl}methyl)pyridazin-3-amine], the IC50 was at most 1000 nM in assay [1]; at most 10000 nM in assay [2]; at most 1000 nM in assay [3]; at most 10000 nM in assay [4]; above 10000 nM in assay [5].
`FC(F)(F)c1nc(-c2ccc(CN(c3ccncn3)c3cnccn3)s2)no1` [Example BZ, N-(Pyrazin-2-yl)-N-({5-[5-(trifluoromethyl)-1,2,4-oxadiazol-3-yl]thiophen-2-yl}methyl)pyrimidin-4-amine]: the IC50 in assay [1] is at most 500 nM; in assay [2], at most 500 nM; in assay [3], at most 500 nM; in assay [4] it was above 10000 nM; in assay [5], above 10000 nM.
Take `FC(F)(F)c1nc(-c2ccc(CN(c3cncnc3)c3cnccn3)s2)no1` [Example CR, N-(Pyrazin-2-yl)-N-({5-[5-(trifluoromethyl)-1,2,4-oxadiazol-3-yl]thiophen-2-yl}methyl)pyrimidin-5-amine]: the IC50 was at most 500 nM in assay [1]; at most 500 nM in assay [2]; at most 500 nM in assay [3]; above 10000 nM in assay [4]; above 10000 nM in assay [5].
As for `FC(F)(F)c1nc(-c2ccc(CN(c3ccccn3)c3cnccn3)s2)no1` [Example V, N-(Pyridin-2-yl)-N-({5-[5-(trifluoromethyl)-1,2,4-oxadiazol-3-yl]thiophen-2-yl}methyl)pyrazin-2-amine], the IC50 was at most 10000 nM in assay [1]; at most 10000 nM in assay [2]; at most 10000 nM in assay [3]; above 10000 nM in assay [4]; above 10000 nM in assay [5].
Turning to `FC(F)(F)c1nc(-c2ccc(CN(c3cnccn3)c3ccc(N4CCCC4)nn3)s2)no1` [Example DI, N-(Pyrazin-2-yl)-6-(pyrrolidin-1-yl)-N-({5-[5-(trifluoromethyl)-1,2,4-oxadiazol-3-yl]thiophen-2-yl}methyl)pyridazin-3-amine], the IC50 is at most 1000 nM in assay [1]; at most 1000 nM in assay [2]; at most 1000 nM in assay [3]; at most 10000 nM in assay [4]; above 10000 nM in assay [5].
Turning to `CS(=O)(=O)c1nccc(N(Cc2ccc(-c3noc(C(F)(F)F)n3)s2)c2cnccn2)n1` [Example CE, 2-Methanesulfonyl-N-(pyrazin-2-yl)-N-({5-[5-(trifluoromethyl)-1,2,4-oxadiazol-3-yl]thiophen-2-yl}methyl)pyrimidin-4-amine], the concentration for half-maximal inhibition (IC50) in assay [1] is at most 10000 nM; in assay [2], at most 1000 nM; in assay [3], at most 1000 nM; in assay [4] it was at most 10000 nM.
As for `CS(=O)(=O)c1ccc(N(Cc2ccc(-c3noc(C(F)(F)F)n3)s2)c2cnccn2)nn1` [Example DL, 6-Methanesulfonyl-N-(pyrazin-2-yl)-N-({5-[5-(trifluoromethyl)-1,2,4-oxadiazol-3-yl]thiophen-2-yl}methyl)pyridazin-3-amine], the IC50 is at most 500 nM in assay [1]; at most 1000 nM in assay [2]; at most 500 nM in assay [3]; at most 10000 nM in assay [4]; above 10000 nM in assay [5].

These data come from patent US20210038607A1, “OXADIAZOLYLTHIOPHENE DERIVATIVES USEFUL AS HISTONE DEACETYLASE INHIBITORS” (Karus Therapeutics Limited, priority 2018, published 2021).
